The values that follow come from patent US20260356990A1, “HEPARIN DODECASACCHARIDES CONTAINING TWO ANTITHROMBIN-BINDING SEQUENCES AS WELL AS PREPARATION METHODS AND APPLICATIONS THEREOF” (SHANDONG UNIVERSITY, priority 2022, published 2026).

The subject of one assay is factor IIa. The assay can be described thus: anti-factor IIa activity. In kind it is biochemical. The settings on record: in vitro; data not shown.
Assay [1] relates to factor Xa. The assay can be described thus: anti-factor Xa (FXa) activity, chromogenic substrate assay kit. In kind it is biochemical. As to conditions: in vitro; for IC50 for anti-FXa activity: mass concentration; for IC50: molar concentration. How it is done:
The anti-factor Xa (FXa) activity of the novel heparin dodecasaccharides I-2 and I-10 prepared in the present disclosure was determined using a commercially available chromogenic substrate assay kit. […] Therefore, the novel heparin dodecasaccharides I-2 and I-10 prepared in the present disclosure are specific inhibitors of factor Xa.

Assay [2] concerns factor Xa. As to the kind of experiment: neutralization effect of protamine on the anti-factor Xa activity, chromogenic substrate assay. In kind it is biochemical. The settings on record: in vitro, protamine at different concentrations. How it is done:
Using the chromogenic substrate assay, the effect of different concentrations of protamine on the anti-Factor Xa (FXa) activity of the novel heparin dodecasaccharides I-2 and I-10 was evaluated. […] The in vitro anti-FXa activity of the novel heparin dodecasaccharide I-2 could be reversed by >80% with protamine, as shown in FIG. 4. Therefore, the heparin dodecasaccharides I-2 and I-10 prepared in the present disclosure are novel heparin molecules whose anticoagulant activity can be neutralized by protamine.

In the next assay the test system is anticoagulant effect. As to conditions: background statement; cited from earlier work.

Usually IC50 stands for the concentration at which inhibition is half-maximal. Low values mean inhibition by little substance, high ones a need for much substance.

Consider `CC(=O)N[C@H]1[C@@H](O[C@H]2[C@H](O)[C@@H](O)[C@H](O[C@H]3[C@H](OS(=O)(=O)O)[C@@H](NS(=O)(=O)O)[C@@H](O[C@H]4[C@H](O)[C@@H](OS(=O)(=O)O)[C@H](O[C@H]5[C@H](O)[C@@H](NS(=O)(=O)O)[C@@H](O[C@H]6[C@H](O)[C@@H](O)[C@H](Oc7ccc([N+](=O)[O-])cc7)O[C@@H]6C(=O)O)O[C@@H]5COS(=O)(=O)O)O[C@H]4C(=O)O)O[C@@H]3COS(=O)(=O)O)O[C@@H]2C(=O)O)O[C@H](COS(=O)(=O)O)[C@@H](O[C@@H]2O[C@H](C(=O)O)[C@@H](O[C@H]3O[C@H](COS(=O)(=O)O)[C@@H](O[C@@H]4O[C@@H](C(=O)O)[C@@H](O[C@H]5O[C@H](COS(=O)(=O)O)[C@@H](O[C@@H]6O[C@H](C(=O)O)[C@@H](O[C@H]7O[C@H](COS(=O)(=O)O)[C@@H](O)[C@H](O)[C@H]7NS(=O)(=O)O)[C@H](O)[C@H]6O)[C@H](OS(=O)(=O)O)[C@H]5NS(=O)(=O)O)[C@H](O)[C@H]4OS(=O)(=O)O)[C@H](O)[C@H]3NS(=O)(=O)O)[C@H](O)[C@H]2O)[C@@H]1O` [Compound I-2], for which the “anti-factor IIa activity” value in the assay with factor IIa is recorded as “no significant anti-factor IIa activity”. Moreover, in the assay with factor Xa [1], the “IC50 for anti-FXa activity” value turned out to be 0.01677 µg/mL and the half-maximal inhibitory concentration (IC50) was found to be 4.34 nM.

Turning to `CC(=O)N[C@H]1[C@@H](O[C@H]2[C@H](O)[C@@H](O)[C@H](O[C@H]3[C@H](OS(=O)(=O)O)[C@@H](NS(=O)(=O)O)[C@@H](O[C@H]4[C@H](O)[C@@H](OS(=O)(=O)O)[C@H](O[C@H]5[C@H](O)[C@@H](NS(=O)(=O)O)[C@@H](O[C@H]6[C@H](O)[C@@H](O)[C@H](Oc7ccc([N+](=O)[O-])cc7)O[C@@H]6C(=O)O)O[C@@H]5COS(=O)(=O)O)O[C@H]4C(=O)O)O[C@@H]3COS(=O)(=O)O)O[C@@H]2C(=O)O)O[C@H](COS(=O)(=O)O)[C@@H](O[C@@H]2O[C@@H](C(=O)O)[C@@H](O[C@H]3O[C@H](COS(=O)(=O)O)[C@@H](O[C@@H]4O[C@@H](C(=O)O)[C@@H](O[C@H]5O[C@H](COS(=O)(=O)O)[C@@H](O[C@@H]6O[C@H](C(=O)O)[C@@H](O[C@H]7O[C@H](COS(=O)(=O)O)[C@@H](O)[C@H](O)[C@H]7NS(=O)(=O)O)[C@H](O)[C@H]6O)[C@H](OS(=O)(=O)O)[C@H]5NS(=O)(=O)O)[C@H](O)[C@H]4OS(=O)(=O)O)[C@H](O)[C@H]3NS(=O)(=O)O)[C@H](O)[C@H]2OS(=O)(=O)O)[C@@H]1O` [Compound I-10], the “reversal of the anti-FXa activity by protamine (in words)” value in the assay with factor Xa [2] is on record as “completely reversed”. In addition, the “anti-factor IIa activity” value in the assay on factor IIa is listed as “no significant anti-factor IIa activity”. Further, in the assay on factor Xa [1], the “IC50 for anti-FXa activity” value was 0.01803 µg/mL and the IC50 was 4.54 nM.

As to `CO[C@H]1O[C@H](COS(=O)(=O)O)[C@@H](O[C@@H]2O[C@@H](C(=O)O)[C@@H](O[C@H]3O[C@H](COS(=O)(=O)O)[C@@H](O[C@@H]4O[C@H](C(=O)O)[C@@H](O[C@H]5O[C@H](COS(=O)(=O)O)[C@@H](O)[C@H](O)[C@H]5NS(=O)(=O)O)[C@H](O)[C@H]4O)[C@H](OS(=O)(=O)O)[C@H]3NS(=O)(=O)O)[C@H](O)[C@H]2OS(=O)(=O)O)[C@H](O)[C@H]1NS(=O)(=O)O` [fondaparinux sodium (Arixtra), reference compound], the “reversal of the anti-FXa activity by protamine (in words)” value with factor Xa [2] was “almost completely unneutralizable”. Moreover, in the assay with factor Xa [1], the “IC50 for anti-FXa activity” value came out at 0.01263 µg/mL and 7.3 nM corresponded to half-maximal inhibition (IC50). For the same compound, the “neutralization of the anticoagulant effect by protamine (in words)” value in the assay with anticoagulant effect was “not neutralized by protamine”.
